The text below walks through data of US20260097060A1, “PHARMACEUTICAL COMPOSITION COMPRISING ENAVOGLIFLOZIN FOR PREVENTING OR TREATING CARDIOVASCULAR AGING DISEASES” (DAEWOONG PHARMACEUTICAL CO., LTD., priority 2022, published 2026).

Series [1] deals with porcine coronary artery rings. The experiment in a line: Evaluation of vascular function (bradykinin-induced relaxation of coronary artery rings, organ chamber). The following applies: for bradykinin concentration at which vasorelaxation was significantly increased compared to nanoplastics alone: nanoplastics + 1 μM test drug. Here is the method:
Vascular endothelial cells play an important role in maintaining vascular homeostasis, but senescence is known to cause vascular dysfunction. Therefore, vascular reactivity of vascular endothelial cells was evaluated to see whether enavogliflozin prevents vascular dysfunction caused by the exposure to nanoplastics. In addition, the evaluation was performed together with the competing material, empagliflozin, and thus their effects were compared.
Specifically, the left anterior descending coronary artery of the porcine heart was resected into rings with a size of 2 to 3 mm. An experiment was conducted with a control, a group treated with 10 µg/mL of nanoplastics, groups treated with […] of nanoplastics+different concentrations of enavogliflozin (0.01, 0.1, and 1 μM), and a group treated with 10 µg/mL of nanoplastics+[…] empagliflozin. The coronary artery rings were placed in Crabb's solution at 37° C. in an organ chamber (95% 02, 5% CO2) to measure changes in isometric tension. The viability of each coronary ring was confirmed by constant […] loading at 5 g for 90 minutes and repeated contractions with up to 80 mM KCl. After washing for 30 minutes, the coronary artery rings were constricted to approximately 80% (maximum contraction) using the thromboxane mimetic U46619 and treated with bradykinin. The relaxation rate of blood vessels in relation to the concentration of bradykinin was then calculated. The results are shown in the graph of FIG. 10.
For statistical data analysis, Prism 5.03 software (GraphPad Software Inc., San Diego, CA, USA) was used. The test results are expressed as the mean±standard error of the mean (SEM). The statistical method was to conduct a two-way ANOVA to verify the difference between groups, and a post hoc test for each type was performed using the verification method with the Bonferroni function. The significance level was set to be p<0.05.
Bradykinin is a biomaterial, and when a bradykinin receptor is activated, endothelial nitric oxide synthase (eNOS) is activated, releasing nitric oxide (NO) and relaxing blood vessels.

The test system of series [2] is reactive oxygen species (ROS). The experiment in a line: Evaluation of oxidative stress (ROS, DCF-DA and DHE fluorescence). In kind it is cell-based, porcine. The conditions noted are these: 10 µg/mL nanoplastics + enavogliflozin 0.01, 0.1 and 1 μM. The protocol:
Oxidative stress was measured using dihydroethidium (DHE) and 2′,7′-dichlorodihydrofluorescein diacetate (DCF-DA).
Specifically, porcine coronary artery endothelial cells were seeded at 1×10^4 cells/well in a black 96-well plate. The cells were divided into a control, a group treated with 10 µg/mL of nanoplastics, and groups treated with 10 µg/mL of the nanoparticles+different concentrations of enavogliflozin (0.01, 0.1, and 1 μM) to perform the experiment. The cells were incubated in DMEM containing 10% FBS, penicillin (100 U/mL), streptomycin (100 U/mL), and fungizone ([…]) in a CO2 incubator at 37° C. After 24-hour incubation, the amount of reactive oxygen species (ROS) produced was measured by fluorescent absorbance (excitation/emission 485/535 nm).
To measure the ROS produced also in the coronary artery rings, the coronary artery rings were treated with samples for each group, and immersed in a frame containing an OCT solution (Leica Biosystems) and frozen in liquid nitrogen. The frozen result was cut into […] sections using a cryotome, and the sections were stained with DHE (10 μM) and incubated at 37° C. for 45 minutes, washed with PBS, and then observed using a fluorescence microscope.
(§1) For statistical data analysis, Prism 5.03 software (GraphPad Software Inc., San Diego, CA, USA) was used. The test results are expressed as the mean±standard error of the mean (SEM). […]

The test system of series [3] is eNOS. The experiment in a line: Measurement of expression of eNOS (western blot). The conditions noted are these: nanoplastics + enavogliflozin 0.01, 0.1 and 1 μM, 24 hours. It is filed as cell-based, porcine. Here is the method: Reduced eNOS expression is a common feature in endothelial senescence, and is known to cause endothelial dysfunction. Here, the expression of eNOS was measured, thereby confirming that enavogliflozin improves the damage to the endothelial function caused by the exposure to nanoplastics.
Specifically, the cells were seeded at 1×10^5 cells/well in a 6-well plate. The cells were cultured in DMEM containing 10% FBS, penicillin (100 U/mL), streptomycin (100 U/mL), and fungizone ([…]) in a CO2 incubator at 37° C. […]
To lyse the porcine coronary artery endothelial cells, 1×RIPA buffer was added to each well and the cells were lysed for 10 minutes. […] Protein quantification of the obtained cell lysate was measured using Bio-Rad DC protein reagent. […]
After eNOS (1:1,000) and 3-actin (1:1,000) as primary antibodies were reacted at 4° C. for 24 hours, the resulting product was washed 3 to 5 times with 1×TBS-T buffer for 10 minutes. […] Protein bands were treated with an ECL solution and detected using Amersham imager 680.
as §1
A general note: A western blot detects proteins with antibodies after separation by electrophoresis.

Series [4] concerns cellular senescence markers p53 and p21. The experiment in a line: Expression of endothelial cell senescence markers (western blot). It is filed as cell-based, porcine. The following applies: nanoplastics + enavogliflozin 0.01, 0.1 and 1 μM, 24 hours. Here is the method:
The expression of cellular senescence markers p53 and p21 was confirmed in porcine coronary artery endothelial cells.
Specifically, the cells were seeded at 1×10^5 cells/well in a 6-well plate. The cells were cultured in DMEM containing 10% FBS, penicillin (100 U/mL), streptomycin (100 U/mL), and fungizone ([…]) in a CO2 incubator at 37° C. The cells were divided into a control, a group treated with 10 μg/mL of nanoplastics, and groups treated with the nanoparticles+different concentrations of enavogliflozin (0.01, 0.1, and 1 μM), and then the cells were treated with samples and incubated for 24 hours.
To lyse the porcine coronary artery endothelial cells, 1×RIPA buffer was added to each well and the cells were lysed for 10 minutes. The cells were scraped with a scraper and centrifuged at 14,000 rpm and 4° C. for 15 minutes. Protein quantification of the obtained cell lysate was measured using Bio-Rad DC protein reagent. Analysis was performed by equally loading 15 g of protein.
After reacting with p53 (1:1,000), p21 (1:1,000), and β-actin (1:1,000) as primary antibodies at 4° C. for 24 hours, the cells were washed 3 to 5 times with 1×TBS-T buffer for 10 minutes. […]
as §1

Series [5] is described as follows: Dissolution test (Korean Pharmacopoeia method 2, paddle method). It is filed as physicochemical. The protocol:
Since the dissolution rate of the active ingredient in the pharmaceutical composition affects the maximum blood concentration (Cmax) and the blood concentration-area under the blood concentration-time curve (AUC) when administering the drug, to achieve appropriate Cmax and AUC, it is important to adjust the dissolution rate of the pharmaceutical composition. Since enavogliflozin has a Tmax of 1 to 2 hours, the drug absorption rate in the stomach is considered important. The above dissolution rate was measured under the condition of the dissolved solution 1.2 in accordance with the dissolution test method 2 of the Korean Pharmacopoeia (paddle method). For specific conditions, refer to the following experimental examples.

For series [6], the system named is Nox2 and p22phox, membrane catalytic subunits of NADPH oxidase. The experiment in a line: Expression of oxidative stress-associated markers (western blot). It is filed as cell-based, porcine. The following applies: nanoplastics + enavogliflozin 0.01, 0.1 and 1 μM, 24 hours. Here is the method:
In the porcine coronary artery endothelial cells, it is known that NADPH oxidase produces a peroxide in endothelial cells to cause cellular senescence and endothelial dysfunction. Oxidative stress in cells was assessed by measuring the expression of Nox2 and p22phox, which are membrane catalytic subunits of the NAPDH oxidase.
Specifically, the cells were seeded at 1×10^5 cells/well in a 6-well plate. The cells were incubated in DMEM containing 10% FBS, penicillin (100 U/mL), streptomycin (100 U/mL), and fungizone ([…]) in a CO2 incubator at 37° C. The cells were divided into a control, a group treated with 10 µg/mL of nanoplastics, and groups treated with nanoplastics+different concentrations of enavogliflozin (0.01, 0.1, and 1 μM), treated with a sample, and then incubated for 24 hours.
To lyse the porcine coronary artery endothelial cells, 1×RIPA buffer was added to each well and the cells were lysed for 10 minutes. The cells were scraped with a scraper and centrifuged at 14,000 rpm and 4° C. for 15 minutes. Protein quantification of the obtained cell lysate was measured using Bio-Rad DC protein reagent. Analysis was performed by equally loading […] of protein. […]
as §1

The nature of series [7]: Pharmacokinetics (Tmax). In kind it is in vivo. The conditions noted are these: blood, oral.
For series [8], the system named is porcine coronary artery rings and coronary artery-derived endothelial cells. The experiment in a line: Evaluation of β-galactosidase (SA-β-Gal) activity (X-gal staining). The following applies: 10 µg/mL nanoplastics + enavogliflozin 0.01, 0.1 and 1 μM, 24 hours, vs nanoplastics. It is filed as cell-based. The protocol:
Senescence-related β-galactosidase (SA-β-Gal) activity is the characteristic of senescent cells, and used as a histochemical marker for senescence.
Specifically, the porcine coronary artery was cut into a size of 2 to 3 mm to form coronary artery rings. Next, the coronary artery rings were divided into a control, a group treated with 10 µg/mL of nanoplastics, and groups treated with 10 µg/mL of the nanoparticles+different concentrations of enavogliflozin (0.01, 0.1, and 1 μM) to perform the experiment. After 24-hour culture, the cells were fixed with 4% formaldehyde, and stained with an X-gal dye to allow a reaction for one day.
Subsequently, the coronary artery rings were immersed in an optimal cutting temperature (OCT) solution (Leica Biosystems) and cut to 10 μm sections using a cryotome at −25° C. and observed under a microscope. The results are shown in the photograph in FIG. 5. In addition, the evaluation of β-galactosidase activity in endothelial cells derived from the porcine coronary artery is as follows. […]
as §1

In series [9] the test system is porcine coronary artery endothelial cells. The experiment in a line: Evaluation of cell proliferation effect (MTS). In kind it is cell-based. The conditions noted are these: nanoplastics + enavogliflozin 0.01, 0.1 and 1 μM, 24 hours, vs nanoplastics. Here is the method:
Cell cycle arrest is one of the main features of cellular senescence. It was confirmed whether enavogliflozin could improve decreased proliferation of endothelial cells, that is, cellular senescence, caused by the exposure to nanoplastics.
Specifically, after extracting the porcine coronary artery, the porcine coronary artery was treated with collagenase for 20 minutes and centrifuged to obtain coronary artery endothelial cells. The cells were seeded at 1×10^4 cells/well in a 96-well plate. The cells were incubated in DMEM containing 10% FBS, penicillin (100 U/mL), streptomycin (100 U/mL), and fungizone ([…]) in a 5% CO2 incubator at 37° C. The cells were divided into a control, a group treated with 10 µg/mL of nanoplastics, and groups treated with the nanoparticles+different concentrations of enavogliflozin (0.01, 0.1, and 1 μM) to perform the experiment, and the cell proliferation effect was measured using a CellTiter 96 Aqueous One Solution Cell Proliferation Assay (Promega Corporation, USA) kit. Samples were treated and incubated for 24 hours, and treated with an MTS tetrazolium solution (20 μL/well) to allow a reaction for 3 hours, and then absorbance was measured at 490 nm using an Enspire Multilabel Reader (Perkin Elmer Ltd.).
For statistical data analysis, Prism 5.03 software (GraphPad Software Inc., San Diego, CA, USA) was used. […]

Where only a bound is given, the exact number is not on record here.

With `OC[C@H]1O[C@@H](c2ccc(Cl)c(Cc3ccc(O[C@H]4CCOC4)cc3)c2)[C@H](O)[C@@H](O)[C@@H]1O` [empagliflozin, reference compound], in series [1], the “bradykinin concentration at which vasorelaxation was significantly increased compared to nanoplastics alone” value is reported as at least 30 nM.

Usually Tmax stands for the time from dosing to the highest level. On to `OC[C@H]1O[C@@H](c2cc(Cc3ccc(C4CC4)cc3)c(Cl)c3c2CCO3)[C@H](O)[C@@H](O)[C@@H]1O` [enavogliflozin], for which, in [2], the “fluorescence intensity of DCF-DA (ROS production)” value is reported as “significantly decreased” and the “fluorescence intensity of DHE (ROS production)” value was “significantly decreased”. Also, the eNOS expression entry in series [3] was “significantly increase”. Besides, in series [4], the “expression of p21 protein” value is “significantly decreased in a concentration-dependent manner” and the “expression of p53 protein” value is reported as “significantly decreased in a concentration-dependent manner”. For the same compound, the 30-minute dissolution rate entry in [5] (average particle size of enavogliflozin) is recorded as “less than 80%”. Moreover, the 5-minute dissolution rate result in [5] (average particle size of enavogliflozin greater than 15 m) is reported as “less than 40 % of the total content of enavogliflozin”. Moreover, in series [6], the “expression of Nox2” value is given as “significantly decreased in a concentration-dependent manner” and the “expression of p22phox” value is given as “significantly decreased in a concentration-dependent manner”. In addition, in [1] (10 µg/mL nanoplastics + enavogliflozin 0.01, 0.1 and 1 μM, vs nanoplastics alone), the bradykinin-induced vasorelaxation result was “significantly increased”. Further, the “bradykinin concentration at which vasorelaxation was significantly increased compared to nanoplastics alone” value in [1] is at least 0.3 nM. In series [7], the Tmax fell in the range of 1 to 2 h. Also, in series [8], the “β-galactosidase (SA-β-Gal) activity” value was “significantly reduced”. The cell proliferation result in series [9] was “improved”.
